Measurements as given in PubChem BioAssay AID248 (DTP/NCI, 2004).
“And” between values parts separate entries of the source, which are not always exact repeats. Identical values can stand only once. Inconclusive results and toxic doses are left out. Rule as the data show it: active = T/C of 150% or more; inactive = T/C below 125%.

Test system: L1210 leukemia ip in BDF1 mice, survival T/C
Assay: NCI In Vivo Anticancer Drug Screen. Data for tumor model L1210 Leukemia (intraperitoneal) in B6D2F1 (BDF1) mice
Details: endpoint: mean survival time, higher = longer survival
Summary of the method: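 Survival endpoint. Drug-treated group vs vehicle group, expressed as T divided by C. Tumor passaged by transplantation.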

[1] = dose: 100.0 mg/kg/injection, schedule: Q01DX009 (ip), vehicle: Klucel (hydroxypropylcellulose) (HPC)
[2] = dose: 200.0 mg/kg/injection, schedule: Q01DX009 (ip), vehicle: Klucel (hydroxypropylcellulose) (HPC)
[3] = dose: 400.0 mg/kg/injection, schedule: Q01DX009 (ip), vehicle: Klucel (hydroxypropylcellulose) (HPC)
[4] = dose: 100.0 mg/kg/injection, schedule: Q04DX003 (ip), vehicle: saline with Tween-80
[5] = dose: 100.0 mg/kg/injection, schedule: Q04DX003 (ip), vehicle: Klucel (hydroxypropylcellulose) (HPC)
[6] = dose: 200.0 mg/kg/injection, schedule: Q04DX003 (ip), vehicle: Klucel (hydroxypropylcellulose) (HPC)
[7] = dose: 400.0 mg/kg/injection, schedule: Q04DX003 (ip), vehicle: Klucel (hydroxypropylcellulose) (HPC)
[8] = dose: 100.0 mg/kg/injection, schedule: Q04DX002 (ip), vehicle: saline with Tween-80
[9] = dose: 200.0 mg/kg/injection, schedule: Q04DX002 (ip), vehicle: saline with Tween-80
[10] = dose: 100.0 mg/kg/injection, schedule: Q01DX009 (ip), vehicle: saline
[11] = dose: 100.0 mg/kg/injection, schedule: Q04DX003 (ip), vehicle: saline
[12] = dose: 200.0 mg/kg/injection, schedule: Q01DX009 (ip), vehicle: saline
[13] = dose: 200.0 mg/kg/injection, schedule: Q04DX003 (ip), vehicle: saline
[14] = dose: 400.0 mg/kg/injection, schedule: Q04DX003 (ip), vehicle: saline

Measured: T/C

O=C(CCBr)c1ccc(Cl)cc1
inactive: dose: 6.25 mg/kg/injection, schedule: Q01DX009 (ip), vehicle: saline with Tween-80 93 % of control | dose: 12.5 mg/kg/injection, schedule: Q01DX009 (ip), vehicle: saline with Tween-80 91 % of control | dose: 25.0 mg/kg/injection, schedule: Q01DX009 (ip), vehicle: saline with Tween-80 93 % of control

Cc1cccc(SC(=O)Nc2cc([N+](=O)[O-])ccc2Cl)c1
inactive: [1] 92 % of control | [2] 98 % of control | [3] 88 % of control

CC(C)C(CN)(CCN1CCCCC1)Cc1cccc2ccccc12 (configuration not stated)
inactive: [4] 97 % of control

COc1ccc(C[C@H]2NC[C@H](O)[C@H]2OC(C)=O)cc1
inactive: dose: 25.0 mg/kg/injection, schedule: Q01DX Z (ip), vehicle: saline 109 % of control | dose: 50.0 mg/kg/injection, schedule: Q01DX Z (ip), vehicle: saline 102 % of control | dose: 100.0 mg/kg/injection, schedule: Q01DX Z (ip), vehicle: saline 109 % of control | dose: 200.0 mg/kg/injection, schedule: Q01DX Z (ip), vehicle: saline 92 % of control and 107 % of control

Cn1ncc2c(=O)[nH]nnc21
inactive: dose: 100.0 mg/kg/injection, schedule: Q01DX001 (ip), vehicle: carboxymethylcellulose (CMC) 98 % of control | dose: 200.0 mg/kg/injection, schedule: Q01DX001 (ip), vehicle: carboxymethylcellulose (CMC) 89 % of control | dose: 400.0 mg/kg/injection, schedule: Q01DX001 (ip), vehicle: carboxymethylcellulose (CMC) 104 % of control

Cc1cc(S(=O)(=O)F)ccc1NC(=O)/C=C/c1ccc([N+](=O)[O-])cc1
inactive: [1] 97 % of control | [3] 92 % of control

CCCCS/C=C1/Sc2cc[nH]c2C1=O
inactive: [5] 96 % of control | [6] 96 % of control | [7] 94 % of control

ClC(Cl)=C(Cl)C(Cl)=C(Cl)Cl
inactive: dose: 3.13 mg/kg/injection, schedule: Q04DX003 (ip), vehicle: Klucel (hydroxypropylcellulose) (HPC) 98 % of control | dose: 6.25 mg/kg/injection, schedule: Q04DX003 (ip), vehicle: Klucel (hydroxypropylcellulose) (HPC) 100 % of control | dose: 12.5 mg/kg/injection, schedule: Q04DX003 (ip), vehicle: Klucel (hydroxypropylcellulose) (HPC) 98 % of control | dose: 100.0 mg/kg/injection, schedule: Q04DX003 (ip), vehicle: carboxymethylcellulose (CMC) 101 % of control

O=[N+]([O-])c1ccc(OCc2ccc(S(=O)(=O)Oc3cccnc3)cc2)c(Cl)c1
inactive: dose: 100.0 mg/kg/injection, schedule: Q01DX001 (ip), vehicle: Klucel (hydroxypropylcellulose) (HPC) 94 % of control | dose: 200.0 mg/kg/injection, schedule: Q01DX001 (ip), vehicle: Klucel (hydroxypropylcellulose) (HPC) 98 % of control | dose: 400.0 mg/kg/injection, schedule: Q01DX001 (ip), vehicle: Klucel (hydroxypropylcellulose) (HPC) 89 % of control

O=C(Nc1cccc(C(F)(F)F)c1)Oc1ccc(F)cc1Cl
inactive: dose: 25.0 mg/kg/injection, schedule: Q01DX009 (ip), vehicle: gum acacia 100 % of control | dose: 50.0 mg/kg/injection, schedule: Q01DX009 (ip), vehicle: gum acacia 98 % of control | dose: 100.0 mg/kg/injection, schedule: Q01DX009 (ip), vehicle: gum acacia 88 % of control

O=C1NC(c2ccc3ccccc3c2)Nc2ccccc21 (configuration not stated)
inactive: [5] 103 % of control | [6] 107 % of control | [7] 105 % of control

CC(C)N(C)C(C1=CC(C)(C)c2ccccc2C1=O)c1ccccc1 (configuration not stated)
inactive: [5] 108 % of control | [6] 101 % of control | [7] 101 % of control

COC1OC(CO)C(OS(=O)(=O)c2ccc(C)cc2)C(C(=O)Oc2ccccc2)C1OC(=O)c1ccccc1 (configuration not stated)
inactive: dose: 50.0 mg/kg/injection, schedule: Q04DX002 (ip), vehicle: saline with Tween-80 93 % of control | [8] 104 % of control | [9] 90 % of control

CCCC1(CCC)CN(CO)C1=O
inactive: dose: 25.0 mg/kg/injection, schedule: Q01DX009 (ip), vehicle: saline 102 % of control | dose: 25.0 mg/kg/injection, schedule: Q04DX003 (ip), vehicle: saline 93 % of control | dose: 50.0 mg/kg/injection, schedule: Q01DX009 (ip), vehicle: saline 102 % of control | dose: 50.0 mg/kg/injection, schedule: Q04DX003 (ip), vehicle: saline 98 % of control | [10] 100 % of control | [11] 104 % of control | [12] 97 % of control | [13] 104 % of control | [14] 88 % of control

CCOC(=O)/C(C)=C\c1c(C)[nH]c(=O)[nH]c1=O
inactive: [10] 87 % of control | [11] 97 % of control | [12] 94 % of control | [13] 94 % of control | dose: 400.0 mg/kg/injection, schedule: Q01DX009 (ip), vehicle: saline 86 % of control | [14] 92 % of control

Cc1cc(C)c(C(=O)O)c(C)c1Br
inactive: dose: 50.0 mg/kg/injection, schedule: Q01DX001 (ip), vehicle: other 98 % of control | dose: 100.0 mg/kg/injection, schedule: Q01DX001 (ip), vehicle: other 104 % of control | [4] 96 % of control | dose: 200.0 mg/kg/injection, schedule: Q01DX001 (ip), vehicle: other 96 % of control | dose: 200.0 mg/kg/injection, schedule: Q04DX003 (ip), vehicle: saline with Tween-80 94 % of control | dose: 400.0 mg/kg/injection, schedule: Q01DX001 (ip), vehicle: other 111 % of control | dose: 400.0 mg/kg/injection, schedule: Q04DX003 (ip), vehicle: saline with Tween-80 103 % of control

NC(CCl)=NCC1C2CC3CC(C2)CC1C3 (configuration not stated)
inactive: dose: 10.0 mg/kg/injection, schedule: Q01DX009 (ip), vehicle: saline 101 % of control | dose: 10.0 mg/kg/injection, schedule: Q04DX002 (ip), vehicle: saline 121 % of control | dose: 20.0 mg/kg/injection, schedule: Q01DX009 (ip), vehicle: saline 116 % of control | dose: 20.0 mg/kg/injection, schedule: Q04DX002 (ip), vehicle: saline 110 % of control | dose: 40.0 mg/kg/injection, schedule: Q04DX002 (ip), vehicle: saline 110 % of control

CCOc1ccc(NC(=S)NC(=O)C(C)Oc2ccccc2)cc1 (configuration not stated)
inactive: dose: 50.0 mg/kg/injection, schedule: Q01DX009 (ip), vehicle: saline with Tween-80 102 % of control | dose: 800.0 mg/kg/injection, schedule: Q04DX002 (ip), vehicle: saline with Tween-80 96 % of control and 101 % of control

C1CCC2(CC1)SSC1(CCCCC1)S2
inactive: dose: 100.0 mg/kg/injection, schedule: Q04DX003 (ip), vehicle: other 95 % of control | dose: 200.0 mg/kg/injection, schedule: Q04DX003 (ip), vehicle: other 98 % of control | dose: 400.0 mg/kg/injection, schedule: Q04DX003 (ip), vehicle: other 98 % of control

CCCCCCOC(=O)C(N)Cc1ccc(OC)c(N(CCCl)CCCl)c1 (configuration not stated)
inactive: dose: 12.5 mg/kg/injection, schedule: Q01DX001 (ip), vehicle: saline 93 % of control | dose: 15.0 mg/kg/injection, schedule: Q01DX001 (ip), vehicle: saline 94 % of control

O=C(O)CCC(=O)Nc1ccc(F)cc1
inactive: [1] 103 % of control | [2] 93 % of control | [3] 93 % of control

CCOC(=O)NC(=O)NC(=O)OCC
inactive: dose: 75.0 mg/kg/injection, schedule: Q01DX009 (ip), vehicle: saline sonified 92 % of control | [11] 107 % of control | dose: 150.0 mg/kg/injection, schedule: Q01DX009 (ip), vehicle: saline sonified 94 % of control | [13] 119 % of control | dose: 300.0 mg/kg/injection, schedule: Q01DX009 (ip), vehicle: saline sonified 96 % of control | [14] 104 % of control

O=S(=O)(CCCCCCl)Cc1ccccc1
inactive: dose: 100.0 mg/kg/injection, schedule: Q01DX001 (ip), vehicle: saline 93 % of control | dose: 200.0 mg/kg/injection, schedule: Q01DX001 (ip), vehicle: saline 93 % of control | dose: 400.0 mg/kg/injection, schedule: Q01DX001 (ip), vehicle: saline 96 % of control

CSc1ccc(OC(=O)Nc2cccc(Cl)c2)cc1
inactive: [8] 100 % of control | [9] 93 % of control | dose: 400.0 mg/kg/injection, schedule: Q04DX002 (ip), vehicle: saline with Tween-80 104 % of control
